Several values for one entry are separate records, joined by “and”; a condition that tells them apart may be missing. Equal values may be shown once.
What was measured:
[1] = Crystal; DTA
[2] = Molar enthalpy of transition or fusion; details: Crystal; DSC
[3] = molar heat capacity at constant pressure; details: 101.33 kPa, Liquid

[Br-].[Br-].[Br-].[Tb+3] [terbium tribromide]
Details	Molar enthalpy of transition or fusion [kcal/mol]	Normal melting temperature [°C]
[1]	–	830
[2]	8.94	–

[3]
Details	molar heat capacity at constant pressure
305 K	95.25 J/K/mol
310 K	96.04 J/K/mol
315 K	96.89 J/K/mol
320 K	96.99 J/K/mol
325 K	97.03 J/K/mol
330 K	96.84 J/K/mol
335 K	97.05 J/K/mol
340 K	97.06 J/K/mol
345 K	98.47 J/K/mol
350 K	98.03 J/K/mol
354 K	96.27 J/K/mol
359 K	96.56 J/K/mol
364 K	95.16 J/K/mol
369 K	95.49 J/K/mol
374 K	95.66 J/K/mol
379 K	94.73 J/K/mol
384 K	96.58 J/K/mol
389 K	94.78 J/K/mol
394 K	96.69 J/K/mol
399 K	97.48 J/K/mol
404 K	97.16 J/K/mol
409 K	97.43 J/K/mol
414 K	96.37 J/K/mol
419 K	97.26 J/K/mol
424 K	96.24 J/K/mol
429 K	97.6 J/K/mol
434 K	98.83 J/K/mol
439 K	98.92 J/K/mol
444 K	98.73 J/K/mol
449 K	100.77 J/K/mol
454 K	101.24 J/K/mol
459 K	102.68 J/K/mol
464 K	101.53 J/K/mol
469 K	101.69 J/K/mol
474 K	101.67 J/K/mol
479 K	101.42 J/K/mol
484 K	102.61 J/K/mol
489 K	102.5 J/K/mol
494 K	101.69 J/K/mol
499 K	102.17 J/K/mol
504 K	102.99 J/K/mol
509 K	102.18 J/K/mol
514 K	100.27 J/K/mol
519 K	96.88 J/K/mol
524 K	98.84 J/K/mol
529 K	97.84 J/K/mol
534 K	99.15 J/K/mol
539 K	97.79 J/K/mol
543 K	97.7 J/K/mol
548 K	97.62 J/K/mol
553 K	98.93 J/K/mol
558 K	98.58 J/K/mol
568 K	98.34 J/K/mol
573 K	98.95 J/K/mol
578 K	98.65 J/K/mol
583 K	99.14 J/K/mol
588 K	98.88 J/K/mol
593 K	100.12 J/K/mol
598 K	98.39 J/K/mol
603 K	99.23 J/K/mol
608 K	100.21 J/K/mol
613 K	99.21 J/K/mol
618 K	100.47 J/K/mol
623 K	100.62 J/K/mol
628 K	99.41 J/K/mol
633 K	99.03 J/K/mol
638 K	100.94 J/K/mol
643 K	100.9 J/K/mol
648 K	106.81 J/K/mol
653 K	99.85 J/K/mol and 102.18 J/K/mol
658 K	101.21 J/K/mol
663 K	102.1 J/K/mol
668 K	99.19 J/K/mol
673 K	98.9 J/K/mol
678 K	101.61 J/K/mol
683 K	98.15 J/K/mol
688 K	99.94 J/K/mol
693 K	98.07 J/K/mol
698 K	97.98 J/K/mol
703 K	96.7 J/K/mol
708 K	97.79 J/K/mol
713 K	99.85 J/K/mol
717 K	99.17 J/K/mol
722 K	99.02 J/K/mol
727 K	99.08 J/K/mol
732 K	99.98 J/K/mol
737 K	99.41 J/K/mol
742 K	101.93 J/K/mol
747 K	100.1 J/K/mol
752 K	104.88 J/K/mol
757 K	100.82 J/K/mol
762 K	101 J/K/mol
767 K	101.85 J/K/mol
772 K	102.41 J/K/mol
777 K	103.2 J/K/mol
782 K	102.71 J/K/mol
787 K	101.9 J/K/mol
792 K	101.02 J/K/mol
797 K	101.52 J/K/mol
802 K	101.51 J/K/mol
807 K	99.68 J/K/mol
812 K	103.05 J/K/mol
817 K	103.73 J/K/mol
822 K	102.94 J/K/mol
827 K	103.83 J/K/mol
832 K	99.83 J/K/mol
837 K	98.83 J/K/mol
842 K	101.98 J/K/mol
847 K	103.78 J/K/mol
852 K	103.32 J/K/mol
857 K	99.15 J/K/mol
862 K	102.98 J/K/mol
867 K	101.94 J/K/mol
872 K	105.24 J/K/mol
877 K	101.33 J/K/mol
882 K	103.27 J/K/mol
887 K	97.19 J/K/mol
892 K	97.82 J/K/mol
897 K	98.26 J/K/mol
902 K	101.94 J/K/mol
907 K	97.88 J/K/mol
911 K	97.43 J/K/mol
916 K	100.85 J/K/mol
921 K	97.21 J/K/mol
926 K	100.73 J/K/mol
931 K	95.04 J/K/mol
936 K	99.59 J/K/mol
941 K	98.67 J/K/mol
946 K	99.44 J/K/mol
951 K	102.23 J/K/mol
956 K	103.73 J/K/mol
961 K	99.7 J/K/mol
966 K	98.27 J/K/mol
971 K	101.79 J/K/mol
976 K	102.55 J/K/mol
981 K	97.92 J/K/mol
986 K	104.37 J/K/mol
991 K	100.42 J/K/mol
996 K	107.17 J/K/mol
1001 K	105.67 J/K/mol
1006 K	110.34 J/K/mol
1011 K	102.11 J/K/mol
1016 K	100.99 J/K/mol
1021 K	106.91 J/K/mol
1026 K	105.87 J/K/mol
1031 K	112.44 J/K/mol
1036 K	99.98 J/K/mol
1041 K	101.71 J/K/mol
1046 K	101.91 J/K/mol
1051 K	106.32 J/K/mol
1056 K	110.86 J/K/mol
1061 K	111.7 J/K/mol
